Measured values from patent US10316038B2, “Pyrrolopyrimidine ITK inhibitors for treating inflammation and cancer” (ACLARIS THERAPEUTICS, INC., priority 2017, dated 2019).
pIC50: −log10 of the molar value.

Key:
[1] = system: ITK phosphorylation of its substrate, PLCγ1, at Y783; assay: ITK target modulation assay (phospho-Y783 PLCγ1 immunoblot in Jurkat T cells); type: cell-based; settings: Homo sapiens, Jurkat, 2 h, 2 hours compound, CD3/CD28 Dynabeads stimulation 100 sec, anti-phospho-Y783 PLCγ1 immunoblot, read-out: PLC-γ Inhibition IC50
Description: Target modulation was based upon the ability of a compound to inhibit ITK phosphorylation of its substrate, PLCγ1, at […]. Human Jurkat T cells were placed in snap-cap polypropylene tubes at 4 million per tube in 800 μL medium (RPMI1640 with 10% heat inactivated serum and […] 2-mercaptoethanol and supplemented with glutamine/penicillin/streptomycin). Compounds were added as 100 μL of 10× working stock solutions in medium with 1% DMSO (or medium with 1% DMSO for controls) and placed in a 37° C. incubator for 2 hours. Stimulation was carried out using CD3/CD28 Dynabeads to activate the T cell receptor and mimic antigen presenting cells. Beads were added for 100 sec at a ratio of 1 bead per cell, in 100 μL medium (or medium alone for unstimulated control). Starting at 70 sec, cells and beads were pelleted in a microfuge for 15 sec, the supernatant aspirated, and 50 μL lysis buffer was added per tube and mixed with the pellet at the 100 sec time point. Tubes were placed on a rotator for 30 min at 4° C., and cell debris was pelleted in a microfuge. Supernatant was mixed 1:1 with 2× Sample Buffer and subjected to SDS-polyacrylamide gel electrophoresis. After transfer to nitrocellulose, immunoblotting was done with anti-phospho-[…] PLCγ1 antibody. Immunoblots were visualized with ECL using horseradish peroxidase conjugated secondary antibody.

ITK = biological target: T1, ITK (Homo sapiens, UniProt Q08881); assay: ITK inhibitor binding potency (LanthaScreen competitive binding assay); settings: TR-FRET competitive binding, 10 nM ITK, 50 nM kinase tracer-236; pre-incubation condition not given; read-out: ITK Inhibition IC50
T1 sequence (Q08881 1-620): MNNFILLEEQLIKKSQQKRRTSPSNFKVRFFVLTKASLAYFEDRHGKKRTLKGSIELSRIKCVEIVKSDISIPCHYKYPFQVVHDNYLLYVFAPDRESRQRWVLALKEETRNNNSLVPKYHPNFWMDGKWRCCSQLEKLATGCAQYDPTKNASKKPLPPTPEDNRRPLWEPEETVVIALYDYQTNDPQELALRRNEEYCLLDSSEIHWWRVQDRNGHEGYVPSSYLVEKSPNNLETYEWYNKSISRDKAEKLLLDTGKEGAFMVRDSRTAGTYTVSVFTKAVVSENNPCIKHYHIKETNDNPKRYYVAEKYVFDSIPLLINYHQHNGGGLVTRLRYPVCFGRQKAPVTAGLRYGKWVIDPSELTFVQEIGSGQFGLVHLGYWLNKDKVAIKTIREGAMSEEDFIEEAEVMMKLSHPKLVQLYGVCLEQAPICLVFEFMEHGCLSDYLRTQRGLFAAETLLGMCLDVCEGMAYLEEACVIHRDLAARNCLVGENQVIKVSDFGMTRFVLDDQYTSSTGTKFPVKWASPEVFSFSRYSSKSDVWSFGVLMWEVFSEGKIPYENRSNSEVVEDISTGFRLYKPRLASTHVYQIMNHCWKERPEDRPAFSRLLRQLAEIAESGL
Text: The ability of candidate compounds to interact with ITK is quantitated by a competitive binding assay using the LanthaScreen technology developed by Life Technologies. This assay is based on the binding of a proprietary, Alexa Fluor™ 647-labeled, ATP-competitive kinase inhibitor (kinase tracer-236) to the ITK expression construct in the presence of a Europium-conjugated antibody, resulting in a FRET (fluorescence resonance energy transfer) signal. Displacement of the kinase tracer by compound results in a lower emission ratio upon excitation of the Europium chelate. Candidate compounds are designed as potential irreversible inhibitors of ITK, capable of ligating to an active site cysteine residue resulting in time dependent covalent binding. The time dependent nature of irreversible inhibition is investigated by performing the binding assay with and without a pre-incubation of compound and ITK. […] The inhibitory potency of candidate compounds is measured in 20 mM HEPES pH 7.5, 10 mM MgCl2, 0.01% BSA, 0.0005% Tween-20, and 2% DMSO in the presence of 10 nM ITK, 2 nM Eu-anti-GST antibody, and 50 nM kinase tracer-236 using a 384-well plate format. Background signal is defined in the absence of ITK and uninhibited signal is defined in the presence of vehicle (2% DMSO) alone. Compounds were evaluated in an 11 point dose-response ranging from 20 uM to 0.34 nM. The binding assays are performed under two preincubation conditions to evaluate time dependence of inhibition. For the pre-incubation assay, ITK and Eu-anti-GST antibody are pre-incubated with compound or vehicle for two hours prior to the addition of kinase tracer. The non-preincubated assay is run under conditions where ITK and Eu-anti-GST antibody are added to a mixture of compound and kinase tracer. IC50 values of compounds are determined using a 4 parameter logistical fit of emission ratio as a function of the concentration of compound.

pIC50 [1] | pIC50 (ITK) | SMILES
≥ 6.00 | ≥ 7.00 | CN(C)C/C=C/C(=O)Nc1cncc(-c2cnc3[nH]cc(-c4cccc(C#N)c4)c3c2)c1 [Example 20, (E)-N-(5-(3-(3-cyanophenyl)-1H-pyrrolo[2,3-b]pyridin-5-yl)pyridin-3-yl)-4-(dimethyl-amino)but-2-enamide]
≥ 6.00 | ≥ 7.00 | C=CC(=O)Nc1cc(-c2cnc3[nH]cc(-c4ccnc(C#N)c4)c3c2)cc(-c2cnn(C)c2)c1 [Example 21, N-(3-(3-(2-cyano-pyridin-4-yl)-1H-pyrrolo[2,3-b]pyridin-5-yl)-5-(1-methyl-1H-pyrazol-4-yl)-phenyl)acrylamide]
≥ 6.00 | ≥ 7.00 | C=CC(=O)Nc1cc(-c2cnc3[nH]cc(-c4ccncn4)c3c2)cc(C(F)(F)F)c1 [Example 22, N-(3-(3-(pyrimidin-4-yl)-1H-pyrrolo-[2,3-b]pyridin-5-yl)-5-(trifluoro-methyl)phenyl)-acrylamide]
≥ 6.00 | ≥ 7.00 | C=CC(=O)Nc1cc(-c2cnc3[nH]cc(-c4ccnc(C)c4)c3c2)cc(C(F)(F)F)c1 [Example 23, N-(3-(3-(2-methyl-pyridin-4-yl)-1H-pyrrolo[2,3-b]-pyridin-5-yl)-5-(trifluoromethyl)-phenyl)acrylamide]
≥ 6.00 | ≥ 7.00 | C=CC(=O)Nc1cccc(-c2cnc3[nH]cc(-c4cncc(NC)c4)c3c2)c1 [Example 24, N-(3-(3-(5-(methylamino)-pyridin-3-yl)-1H-pyrrolo[2,3-b]-pyridin-5-yl)-phenyl)acrylamide]
≥ 6.00 | ≥ 6.00 | C=CC(=O)Nc1cc(-c2cnc3[nH]cc(-c4ccnc5[nH]ccc45)c3c2)cc(C(F)(F)F)c1 [Example 25, N-(3-(1H,1′H-[3,4′-bipyrrolo-[2,3-b]pyridin]-5-yl)-5-(trifluoro-methyl)phenyl)-acrylamide]
≥ 6.00 | ≥ 7.00 | C=CC(=O)Nc1cc(OC)cc(-c2cnc3[nH]cc(-c4ccnc(OC)c4)c3c2)c1 [Example 26, N-(3-methoxy-5-(3-(2-methoxy-pyridin-4-yl)-1H-pyrrolo[2,3-b]-pyridin-5-yl)-phenyl)acrylamide]
5.30 to 6.00 | ≥ 7.00 | CNc1nccc(-c2c[nH]c3ncc(-c4cccc(NC(=O)/C=C/CN(C)C)c4)cc23)n1 [Example 27, (E)-4-(dimethyl-amino)-N-(3-(3-(2-(methylamino)-pyrimidin-4-yl)-1H-pyrrolo[2,3-b]pyridin-5-yl)phenyl)but-2-enamide]
≥ 6.00 | ≥ 7.00 | C=CC(=O)Nc1cc(OC)cc(-c2cnc3[nH]cc(-c4ccnc(C)c4)c3c2)c1 [Example 28, N-(3-methoxy-5-(3-(2-methyl-pyridin-4-yl)-1H-pyrrolo[2,3-b]-pyridin-5-yl)-phenyl)acrylamide]
≥ 6.00 | ≥ 7.00 | C=CC(=O)Nc1cc(OC)cc(-c2cnc3[nH]cc(-c4ccnc(F)c4)c3c2)c1 [Example 29, N-(3-(3-(2-fluoro-pyridin-4-yl)-1H-pyrrolo[2,3-b]-pyridin-5-yl)-5-methoxyphenyl)-acrylamide]
≥ 6.00 | ≥ 7.00 | C=CC(=O)Nc1cc(OC)cc(-c2cnc3[nH]cc(-c4ccncn4)c3c2)c1 [Example 30, N-(3-methoxy-5-(3-(pyrimidin-4-yl)-1H-pyrrolo-[2,3-b]pyridin-5-yl)phenyl)-acrylamide]
≥ 6.00 | ≥ 7.00 | COc1cc(NC(=O)/C=C/CN(C)C)cc(-c2cnc3[nH]cc(-c4ccnc5[nH]ccc45)c3c2)c1 [Example 31, (E)-N-(3-(1H,1′H-[3,4′-bipyrrolo[2,3-b]pyridin]-5-yl)-5-methoxyphenyl)-4-(dimethylamino)-but-2-enamide]
≥ 6.00 | ≥ 7.00 | CN(C)C/C=C/C(=O)Nc1cc(-c2cnc3[nH]cc(-c4ccnc(F)c4)c3c2)cc(C(F)(F)F)c1 [Example 32, (E)-4-(dimethyl-amino)-N-(3-(3-(2-fluoropyridin-4-yl)-1H-pyrrolo-[2,3-b]pyridin-5-yl)-5-(trifluoro-methyl)phenyl)-but-2-enamide]
